Test [1] deals with N1E-115 cells. In words: IncuCyte live-cell imaging, proliferation. The format is cell-based, mouse. Conditions: N1E-115, 100-350 μM; p = 0.0192 control vs 150 μM. The text has this:
In order to ascertain whether CW069 could more broadly reduce proliferation in a range of cancer cells, we carried out IncuCyte live-cell imaging on N1E-115 cells and BT549 (with lower but marked centrosome amplification) and MCF-7 (with normal centrosome numbers) breast cancer cells. Cells were imaged for 21 hr prior to treatment with DMSO control (0.2%) and various concentrations of CW069, and then imaged for a further 36 hr. […] It could also be due to another direct or indirect effect, and the role of HSET in the survival of cancer cells with normal centrosome numbers remains to be fully understood.
NHDF cells were obtained from PromoCell, and the N1E-115 and HeLa cells were obtained from ATCC/LGC Standards. The BT549, MCF-7 and MDA-MB-231 cells were kind gifts from the Caldas laboratory (CRUK Cambridge Institute) and were originally obtained from ATCC/LGC. All human cells were verified by STR genotyping and all tested negative for mycoplasma. […] Fluorescence was quantified using an Infinite 200 PRO plate-reader (Tecan) at a wavelength of 545 nm. […]
For live-cell imaging, plated cells were imaged prior to treatment for 24 hr and then after treatment for 72 hr. […] Data were analyzed as the percentage of original cell confluency in order to directly compare each compound treatment with the DMSO control.

Another test relates to HeLa cells. In words: Immunofluorescence after time-lapse imaging, monopolar/bipolar spindles. Conditions: 200 μM CW069, 100 μM monastrol, 40 mitotic cells. The format is cell-based, human. The text has this:
Immediately after time-lapse imaging, cells were fixed and antibodies against α-tubulin, CDK5RAP2, and DAPI were employed to visualize MTs, centrosomes, and DNA, respectively. […] Control HeLa cells formed mainly bipolar spindles (92%), with two centrosomes positioned at the spindle poles on either side of the metaphase plate (Figure 6C; Table 1). Similar numbers of bipolar spindles were formed in CW069-treated cells (95%; Figure 6C; Table 1). Monastrol-treated cells almost exclusively formed monopolar spindles (97%) with one pole surrounded by DNA ([Luo et al., 2004]; Figure 6C; Table 1). Normal bipolar spindle formation was indeed restored for many cells (45%) when the HSET inhibitor CW069 was administered along with the KSP inhibitor monastrol (Figure 6C; Table 1).
(§1) Cells were plated at a seeding density of 1.2 × 10^4 cells per well in Ibidi eight-well chamber slides, incubated for 24 hr, and then treated with compound for 3 hr. Prewarmed 4% paraformaldehyde in PBS was then added to each well to fix the cells before washing with PBS. Permeabilization and blocking was performed by incubating the slides with 1% BSA, 0.3% Triton X-100, 5% goat serum in PBS (PBS/B/0.3%T+5%GS) for 1 hr while shaking them at room temperature (RT). The slides were incubated with primary antibody solutions (mouse monoclonal anti-α-Tubulin [catalog number T9026; Sigma-Aldrich] and rabbit anti-CDK5RAP2 [catalog number A300-554A; Bethyl Laboratories]) at 4°C for 16 hr. The slides were washed four times with PBS/B/0.3%T+5%GS and then incubated with secondary antibody solutions (anti-rabbit IgG Alexa Fluor 488 [catalog number A21206] and anti-mouse IgG Alexa Fluor 647 [catalog number A20990]; Invitrogen) and DAPI (catalog number D3571; Invitrogen) in deionized water (300 nM) in the dark at RT for 1 hr. After four washes with PBS/B/0.3%T+5%GS, the solution was replaced with PBS and the slides were stored at 4°C until imaging was performed. Images were gathered with the use of an ICys Research Imaging Cytometer (CompuCyte) or a tandem confocal microscope (Leica).

In the next test the test system is MDA-MB-231 cells. The experiment in a line: Immunofluorescence, mitotic spindle morphology. The format is cell-based, human. Conditions: MDA-MB-231, 100 μM and 200 μM, 2.5 hr. The method, then: as §1, with “Cells were plated at a seeding density of 1.2 × 10^4 cells per well in Ibidi eight-well chamber slides, incubated for 24 hr, and then treated with compound for 3 hr.” left out
(1 picture or pasted object on this page, not shown here)

Test [2] has as its system NHDF cells. The experiment in a line: Immunofluorescence, mitotic spindle morphology. The format is cell-based, human. The conditions noted are these: 100 μM and 200 μM, 2.5 hr. The source says: Using IF, we next examined the mitotic phenotypes induced by CW069 in N1E-115 and NHDF cells, with a strong focus on centrosome numbers and mitotic spindle morphology. Antibodies against α-tubulin, CDK5RAP2, and DAPI were employed to visualize MTs, centrosomes, and DNA, respectively. We hypothesized that small-molecule inhibition of HSET would give rise to mitotic spindle defects similar to those reported after HSET knockdown by siRNA transfection ([Kwon et al., 2008]), and this was indeed the case. […] After treatment, the N1E-115 cells formed multipolar spindles due to a lack of centrosome clustering, consistent with HSET inhibition in cells with supernumerary centrosomes (Figure 4C).
[…] Prewarmed 4% paraformaldehyde in PBS was then added to each well to fix the cells before washing with PBS. Permeabilization and blocking was performed by incubating the slides with 1% BSA, 0.3% Triton X-100, 5% goat serum in PBS (PBS/B/0.3%T+5%GS) for 1 hr while shaking them at room temperature (RT). The slides were incubated with primary antibody solutions (mouse monoclonal anti-α-Tubulin [catalog number T9026; Sigma-Aldrich] and rabbit anti-CDK5RAP2 [catalog number A300-554A; Bethyl Laboratories]) at 4°C for 16 hr. […]

Test [3] concerns N1E-115 cells. The experiment in a line: SRB growth-inhibition assay. The class given is cell-based. The conditions noted are these: Mus musculus, N1E-115, 72 hr, 0.3 μM to 400 μM. The text has this: (§2) We next assessed whether CW069 could selectively target proliferation in cancer cells. We used a combination of cell-growth-inhibition assays based on the Sulforhodamine-B (SRB) technique ([Vichai and Kirtikara, 2006]) and IncuCyte live-cell imaging. […] This further highlights that HSET inhibition, unlike that of KSP or CENP-E, provides a unique opportunity to selectively damage malignant cells without harming normal cells.
(§3) NHDF cells were obtained from PromoCell, and the N1E-115 and HeLa cells were obtained from ATCC/LGC Standards. The BT549, MCF-7 and MDA-MB-231 cells were kind gifts from the Caldas laboratory (CRUK Cambridge Institute) and were originally obtained from ATCC/LGC. All human cells were verified by STR genotyping and all tested negative for mycoplasma. Cells were cultured in Dulbecco’s modified Eagle’s medium (DMEM) supplemented with 10% fetal calf serum (FCS) at 37°C and 5% CO2. All compounds used in the Sulforhodamine B colorimetric (SRB) assay ([Vichai and Kirtikara, 2006]) were dissolved in DMSO and diluted in culture medium to a final concentration of 0.2% DMSO. For the SRB assay and live-cell imaging (using the IncuCyte Kinetic Live Cell Imaging System; Select Science), cells were seeded in 96-well plates at a density of 2,500 cells per well. […] Fluorescence was quantified using an Infinite 200 PRO plate-reader (Tecan) at a wavelength of 545 nm. […]

For test [4], the system named is NHDF cells. In words: SRB growth-inhibition assay. The class given is cell-based. Conditions: Homo sapiens, 72 hr, 0.3 μM to 400 μM.
Text: as §2, §3

Each structure is given as a SMILES string.

Broadly, the IC50 is the concentration needed to halve the response being measured.

Regarding `O=C(O)c1cc(I)ccc1NC(=O)[C@H](Cc1ccccc1)NCc1ccccc1` [CW069], in the test with N1E-115 cells [1], the cell proliferation result is recorded as “reduction in cell proliferation”. For the same compound, in the test with HeLa cells, the “Bipolar Spindle (%)” value amounted to 95% and the “Monopolar Spindle (%)” value was 5%. Further, in the test with MDA-MB-231 cells, the multipolar spindles entry is listed as “small but significant increase in multipolar spindles”. In the test with NHDF cells [2], the mitotic spindle morphology result was “unchanged compared with control”. In addition, in the test on N1E-115 cells [3], the IC50 stood at 86 ± 10 µM. In addition, the IC50 with NHDF cells [4] worked out at 181 ± 7 µM.

The values are drawn from paper PMC3898838, “Design, Synthesis, and Biological Evaluation of an Allosteric Inhibitor of HSET that Targets Cancer Cells with Supernumerary Centrosomes” (Chemistry & Biology, 2013).
